# Read-outs that look alike come from different tables or passages of the source.
# Legend:
# Assay type in all cases: cell-based
# [1] = test system: Streptococcus pneumoniae 1016; experiment: MIC, microtiter broth dilution (NCCLS M100-S14), S. pneumoniae 1016 (susceptible)
# Outline: (§1)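 Broth dilution was run in microtiter trays and read per NCCLS M100-S14 to give MICs. Compounds came from 40 mg/ml DMSO stock solutions. The strain panel paired macrolide-susceptible parents with macrolide-resistant derivatives.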
# [2] = test system: Streptococcus pneumoniae 1095; details: microtiter broth dilution
# Outline: as §1
# [3] = test system: Streptococcus pneumoniae 1175; details: microtiter broth dilution
# Outline: as §1
# [4] = test system: Streptococcus pyogenes 1079; experiment: MIC, microtiter broth dilution (NCCLS M100-S14), S. pyogenes 1079 (ermB)
# Outline: as §1
# [5] = test system: Haemophilus influenzae 1218; experiment: MIC, microtiter broth dilution (NCCLS M100-S14), H. influenzae 1218 (susceptible)
# Outline: as §1
# [6] = S. pneumoniae 1016 (susceptible)
# [7] = H. influenzae 1218 (susceptible)
Structure (SMILES),MIC S. pneumo. 1016 ([1]; Streptococcus pneumoniae 1016),MIC S. pneumo. 1095 ([2]; Streptococcus pneumoniae 1095),MIC S. pneumo. 1175 ([3]; Streptococcus pneumoniae 1175),MIC S. pyogenes 1079 ([4]; Streptococcus pyogenes 1079),MIC H. influenzae 1218 ([5]; Haemophilus influenzae 1218),"MIC S. pneumo. 1016 [1, 6]",MIC S. pneumo. 1095 ([2]; S. pneumoniae 1095 (ermB)),MIC S. pneumo. 1175 ([3]; S. pneumoniae 1175 (mefA)),MIC S. pyogenes 1079 ([4]; S. pyogenes 1079 (ermB)),"MIC H. influenzae 1218 [5, 7]"
"CCC1OC(=O)C(C)C(=O)C(C)C(OC2OC(C)CC(N(C)C)C2O)C(C)(OC)CC(C)C(=O)C(C)C2N(C3CN(Cc4ccn[nH]4)C3)C(=O)OC12C (stereo not drawn) [Example 1.18, (1H-pyrazol-5-yl)methyl]",<0.06 µg/mL,1 µg/mL,2 µg/mL,>64.00 µg/mL,0.25 µg/mL,,,,,
CCC1OC(=O)C(C)C(=O)C(C)C(OC2OC(C)CC(N(C)C)C2O)C(C)(OC)CC(C)C(=O)C(C)C2N(CC3CCCN3C(=O)c3ccc4cccnc4n3)C(=O)OC12C.O=CO (stereo not drawn) [10.16],,,,,,<0.06 µg/mL,<0.06 µg/mL,0.25 µg/mL,>64.00 µg/mL,0.25 µg/mL
CCC1OC(=O)C(C)C(=O)C(C)C(OC2OC(C)CC(N(C)C)C2O)C(C)(OC)CC(C)C(=O)C(C)C2N(CC3CN(C(=O)c4cc(F)ccc4F)C3)C(=O)OC12C (stereo not drawn) [4.02],0.01 µg/mL,0.5 µg/mL,0.5 µg/mL,100 µg/mL,3.12 µg/mL,,,,,
CCC1OC(=O)C(C)C(=O)C(C)C(OC2OC(C)CC(N(C)C)C2O)C(C)(OC)CC(C)C(=O)C(C)C2N(CC3CCCN3S(=O)(=O)c3cccc4cccnc34)C(=O)OC12C (stereo not drawn) [10.47],,,,,,<0.06 µg/mL,0.12 µg/mL,<0.06 µg/mL,64 µg/mL,2 µg/mL
"CCC1OC(=O)C(C)C(=O)C(C)C(OC2OC(C)CC(N(C)C)C2O)C(C)(OC)CC(C)C(=O)C(C)C2N(C3CCN(Cc4cncc5ccccc45)C3)C(=O)OC12C (stereo not drawn) [Example 9.10, (isoquinolin-4-yl)methyl]",,,,,,<0.06 µg/mL,8 µg/mL,0.25 µg/mL,64 µg/mL,0.5 µg/mL
"CCC1OC(=O)C(C)C(=O)C(C)C(OC2OC(C)CC(N(C)C)C2O)C(C)(OC)CC(C)C(=O)C(C)C2N(C3CN(Cc4ccc5c(c4)OCO5)C3)C(=O)OC12C (stereo not drawn) [Example 1.104, 3-descladinosyl-11,12-dideoxy-6-O-methyl-3-oxo-12,11-(oxycarbonyl-(1-(benzo[d][1,3]dioxole-5-methyl)-azetidin-3-yl)-imino)erythromycin A]",<0.063 µg/mL,<0.063 µg/mL,0.125 µg/mL,>64 µg/mL,0.25 µg/mL,,,,,
CCC1OC(=O)C(C)C(=O)C(C)C(OC2OC(C)CC(N(C)C)C2O)C(C)(OC)CC(C)C(=O)C(C)C2N(CC3CN(C(=O)c4cnn5ccccc45)C3)C(=O)OC12C (stereo not drawn) [4.35],<0.06 µg/mL,1 µg/mL,0.12 µg/mL,>64.00 µg/mL,1 µg/mL,,,,,
"CCOc1ccc(S(=O)(=O)N2CC(N3C(=O)OC4(C)C(CC)OC(=O)C(C)(F)C(=O)C(C)C(OC5OC(C)CC(N(C)C)C5O)C(C)(OC)CC(C)C(=O)C(C)C34)C2)cc1C#N (stereo not drawn) [Example 3.103, 3-descladinosyl-11,12-dideoxy-2-fluoro-6-O-methyl-3-oxo-12,11-(oxycarbonyl-(1-(3-cyano-4-ethoxybenzene-1-sulfonyl)-azetidin-3-yl)-imino)-erythromycin A]",<0.063 µg/mL,<0.063 µg/mL,<0.063 µg/mL,0.5 µg/mL,2 µg/mL,,,,,
"CCC1OC(=O)C(C)C(=O)C(C)C(OC2OC(C)CC(N(C)C)C2O)C(C)(OC)CC(C)C(=O)C(C)C2N(C3CN(S(=O)(=O)c4cccc5ccccc45)C3)C(=O)OC12C (stereo not drawn) [Example 3.02, 3-descladinosyl-11,12-dideoxy-6-O-methyl-3-oxo-12,11-(oxycarbonyl-(1-(naphthalene-1-sulfonyl)-azetidin-3-yl)-imino)-erythromycin A]",<0.06 µg/mL,<0.06 µg/mL,<0.06 µg/mL,0.5 µg/mL,0.12 µg/mL,,,,,
CCC1OC(=O)C(C)C(=O)C(C)C(OC2OC(C)CC(N(C)C)C2O)C(C)(OC)CC(C)C(=O)C(C)C2N(CC3CCN(C(=O)c4cnc5ccccc5c4)C3)C(=O)OC12C (stereo not drawn) [11.17],,,,,,<0.06 µg/mL,8 µg/mL,2 µg/mL,>64.00 µg/mL,4 µg/mL
CCC1OC(=O)C(C)C(=O)C(C)C(OC2OC(C)CC(N(C)C)C2O)C(C)(OC)CC(C)C(=O)C(C)C2N(C3CN(S(=O)(=O)c4cncc(-c5cnco5)c4)C3)C(=O)OC12C (stereo not drawn) [Example 3.75],<0.06 µg/mL,<0.06 µg/mL,<0.06 µg/mL,16 µg/mL,1 µg/mL,,,,,
"CC[C@H]1OC(=O)[C@H](C)[C@@H](OC(=O)N2CCCC2)[C@H](C)[C@@H](O[C@@H]2O[C@H](C)C[C@H](N(C)C)[C@H]2O)[C@](C)(OC)C[C@@H](C)C(=O)[C@H](C)[C@H]2N(CC3CN(Cc4cccc5cccnc45)C3)C(=O)O[C@]12C [Example 5.08, 2-R^2: (quinolin-8-yl)methyl; R^#: pyrrolidin-1-yl]",<0.06 µg/mL,0.25 µg/mL,<0.06 µg/mL,16 µg/mL,2 µg/mL,,,,,
"CCC1OC(=O)C(C)C(=O)C(C)C(OC2OC(C)CC(N(C)C)C2O)C(C)(OC)CC(C)C(=O)C(C)C2N(C3CN(Cc4cccc5cccnc45)C3)C(=O)OC12C (stereo not drawn) [Example 1.05, (quinolin-8-yl)methyl]",<0.06 µg/mL,<0.06 µg/mL,0.12 µg/mL,64 µg/mL,0.25 µg/mL,,,,,
CCC1OC(=O)C(C)C(=O)C(C)C(OC2OC(C)CC(N(C)C)C2O)C(C)(OC)CC(C)C(=O)C(C)C2N(CC3CN(Cc4cccc5ncccc45)C3)C(=O)OC12C (stereo not drawn) [4.15],<0.06 µg/mL,<0.06 µg/mL,<0.06 µg/mL,32 µg/mL,0.25 µg/mL,,,,,
CCC1OC(=O)C(C)C(=O)C(C)C(OC2OC(C)CC(N(C)C)C2O)C(C)(OC)CC(C)C(=O)C(C)C2N(CC3CCCN3C(=O)c3ccc4cccnc4c3)C(=O)OC12C (stereo not drawn) [12.12],,,,,,<0.06 µg/mL,<0.06 µg/mL,1 µg/mL,>64.00 µg/mL,2 µg/mL
"CC[C@H]1OC(=O)[C@H](C)C(=O)[C@H](C)[C@@H](O[C@@H]2O[C@H](C)C[C@H](N(C)C)[C@H]2O)[C@](C)(OC)C[C@@H](C)C(=O)[C@H](C)[C@H]2N(C3CN(Cc4c(Br)cnc5nccnc45)C3)C(=O)O[C@]12C [Example 1.74, 3-descladinosyl-11,12-dideoxy-6-O-methyl-3-oxo-12,11-(oxycarbonyl-(1-(7-bromopyrido[3,2-b]pyrazine-8-methyl)-azetidin-3-yl)imino)-erythromycin A]",<0.063 µg/mL,<0.063 µg/mL,<0.063 µg/mL,0.5 µg/mL,1 µg/mL,,,,,
CCC1OC(=O)C(C)C(=O)C(C)C(OC2OC(C)CC(N(C)C)C2O)C(C)(OC)CC(C)C(=O)C(C)C2N(CC3CCCN3C(=O)c3nc4ccncc4[nH]3)C(=O)OC12C (stereo not drawn) [10.24],,,,,,<0.06 µg/mL,<0.06 µg/mL,1 µg/mL,>64.00 µg/mL,2 µg/mL
CCC1OC(=O)C(C)C(=O)C(C)C(OC2OC(C)CC(N(C)C)C2O)C(C)(OC)CC(C)C(=O)C(C)C2N(CC3CCCN3C(=O)c3ccnc4ncsc34)C(=O)OC12C (stereo not drawn) [10.44],,,,,,<0.06 µg/mL,<0.06 µg/mL,0.12 µg/mL,>64.00 µg/mL,1 µg/mL
"CCC1OC(=O)C(C)C(=O)C(C)C(OC2OC(C)CC(N(C)C)C2O)C(C)(OC)CC(C)C(=O)C(C)C2N(CC3CCCN3C(=O)c3cc4ccccn4n3)C(=O)OC12C [Example 10.14, 3-descladinosyl-11,12-dideoxy-6-O-methyl-3-oxo-12,11-(oxycarbonyl-((1-(pyrazolo[1,5-a]pyridine-2-carbonyl)-(R)-pyrrolidin-2-yl)-methyl)-imino)-erythromycin A]",,,,,,<0.06 µg/mL,<0.06 µg/mL,0.12 µg/mL,32 µg/mL,0.25 µg/mL
"CCC1OC(=O)C(C)C(=O)C(C)C(OC2OC(C)CC(N(C)C)C2O)C(C)(OC)CC(C)C(=O)C(C)C2N(C3CN(C(=O)c4cccc(-c5noc(C)n5)c4)C3)C(=O)OC12C (stereo not drawn) [Example 2.16, 3-(5-methyl-1,2,4-oxadiazol-3-yl)benzoyl]",<0.06 µg/mL,16 µg/mL,0.25 µg/mL,>64.00 µg/mL,64 µg/mL,,,,,
CC[C@H]1OC(=O)[C@H](C)C(=O)[C@H](C)[C@@H](O[C@@H]2O[C@H](C)C[C@H](N(C)C)[C@H]2O)[C@](C)(OC)C[C@@H](C)C(=O)[C@H](C)[C@H]2N(CC3(O)CN(Cc4cccc5nc[nH]c45)C3)C(=O)O[C@]12C [7.08],,,,,,<0.06 µg/mL,<0.06 µg/mL,0.25 µg/mL,>64.00 µg/mL,0.25 µg/mL

# Reference: US7462600B2, “Macrolides” (Pfizer Inc, priority 2004, dated 2008)
